One molecule from ChEMBL document CHEMBL5390318, “2-Amino-5-arylethynyl-thiophen-3-yl-(phenyl)methanones as A1 Adenosine Receptor Positive Allosteric Modulators” (ACS Med Chem Lett, 2023) can be followed below.

Test [1] addresses Sigma intracellular receptor 2 (Homo sapiens, UniProt Q5BJF2). In words: Binding affinity to sigma 2 receptor (unknown origin).
The target in test [2] is Beta-3 adrenergic receptor (Homo sapiens, UniProt P13945). Nature of the test: Binding affinity to beta3 adrenergic receptor (unknown origin).
Sequence of Beta-3 adrenergic receptor (P13945 whole entry): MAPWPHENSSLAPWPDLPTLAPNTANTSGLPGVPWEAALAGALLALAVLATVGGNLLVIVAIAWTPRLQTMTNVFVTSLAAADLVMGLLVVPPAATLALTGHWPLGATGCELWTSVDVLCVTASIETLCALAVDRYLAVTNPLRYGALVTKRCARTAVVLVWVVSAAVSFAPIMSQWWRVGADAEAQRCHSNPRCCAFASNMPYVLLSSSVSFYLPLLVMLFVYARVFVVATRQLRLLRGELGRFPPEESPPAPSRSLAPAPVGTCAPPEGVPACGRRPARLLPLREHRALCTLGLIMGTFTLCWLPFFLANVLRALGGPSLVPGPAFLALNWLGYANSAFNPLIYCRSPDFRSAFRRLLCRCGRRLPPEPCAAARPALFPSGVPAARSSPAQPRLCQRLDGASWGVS
In a further test the target is Translocator protein (Homo sapiens, UniProt P30536). In words: Binding affinity to TSPO (unknown origin).
Sequence of Translocator protein (P30536 whole entry): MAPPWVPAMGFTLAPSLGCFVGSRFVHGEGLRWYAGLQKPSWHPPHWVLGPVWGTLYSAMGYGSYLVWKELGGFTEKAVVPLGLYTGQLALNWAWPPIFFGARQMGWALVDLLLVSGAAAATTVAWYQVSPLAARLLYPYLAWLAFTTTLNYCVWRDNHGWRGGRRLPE
Test [3] concerns the target 5-hydroxytryptamine receptor 7 (Homo sapiens, UniProt P34969). Nature of the test: Binding affinity to 5HT-7A receptor (unknown origin).

Sequence of 5-hydroxytryptamine receptor 7 (P34969 whole entry): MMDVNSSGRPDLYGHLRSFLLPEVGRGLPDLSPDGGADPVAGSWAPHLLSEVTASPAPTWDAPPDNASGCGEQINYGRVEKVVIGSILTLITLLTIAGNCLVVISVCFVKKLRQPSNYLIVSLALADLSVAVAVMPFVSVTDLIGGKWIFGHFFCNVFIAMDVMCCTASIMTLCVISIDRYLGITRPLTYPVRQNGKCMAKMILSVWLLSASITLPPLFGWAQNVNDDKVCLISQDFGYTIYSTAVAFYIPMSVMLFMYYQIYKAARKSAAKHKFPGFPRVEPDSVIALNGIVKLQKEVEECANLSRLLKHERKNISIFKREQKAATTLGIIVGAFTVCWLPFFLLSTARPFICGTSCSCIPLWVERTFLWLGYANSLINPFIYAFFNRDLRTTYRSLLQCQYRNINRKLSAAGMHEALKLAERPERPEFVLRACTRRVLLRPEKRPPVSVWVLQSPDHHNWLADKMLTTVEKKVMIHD
Sequence of Sigma intracellular receptor 2 (Q5BJF2 whole entry): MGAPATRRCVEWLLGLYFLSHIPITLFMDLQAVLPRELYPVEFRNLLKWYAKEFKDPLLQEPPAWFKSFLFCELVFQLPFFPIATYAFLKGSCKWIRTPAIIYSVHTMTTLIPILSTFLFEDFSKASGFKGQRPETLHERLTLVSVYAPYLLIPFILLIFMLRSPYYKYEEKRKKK

With `CC(C)(C)Cc1c(C#Cc2ccccc2F)sc(N)c1C(=O)c1ccc(Cl)cc1`, the Ki in test [1] came out at 1400 nM; in test [2], 3500 nM; on Translocator protein it was 560 nM; in test [3] it was 5700 nM.

A word on the Ki: it is a measure of affinity in units of concentration, obtained from inhibition or displacement. Higher therefore signals lower affinity.
